# Measurements: US6444668B1 (Wyeth, priority 1999, dated 2002)
# What was measured:
# [1] = test system: rat uterine decidualization; assay: Rat decidualization assay; type: in vivo; conditions: dose 3 mg/kg
# Description: 1. Rat Decidualization Assay
# b. Animals (RACUC Protocol #5002)
# The animals are treated once daily for seven days.
# Uteri are removed and trimmed of fat.
# Body weight: Mean total animal body weight (default-kg)
# Decidual response: [(D-C)/C]x100%
# human PR = biological target: T1, human PR (Homo sapiens, UniProt P06401); assay: PRE-luciferase assay in CV-1 cells; type: cell-based; conditions: PR antagonist; CV-1 cells co-transfected with human PR and PRE-luciferase; in the presence of 3 nM progesterone; read-out: hPR CV-1 IC50
# T1 construct: expressed in transfected cells; host or cells: CV-1 cells (electroporation)
# T1 sequence (P06401 1-933): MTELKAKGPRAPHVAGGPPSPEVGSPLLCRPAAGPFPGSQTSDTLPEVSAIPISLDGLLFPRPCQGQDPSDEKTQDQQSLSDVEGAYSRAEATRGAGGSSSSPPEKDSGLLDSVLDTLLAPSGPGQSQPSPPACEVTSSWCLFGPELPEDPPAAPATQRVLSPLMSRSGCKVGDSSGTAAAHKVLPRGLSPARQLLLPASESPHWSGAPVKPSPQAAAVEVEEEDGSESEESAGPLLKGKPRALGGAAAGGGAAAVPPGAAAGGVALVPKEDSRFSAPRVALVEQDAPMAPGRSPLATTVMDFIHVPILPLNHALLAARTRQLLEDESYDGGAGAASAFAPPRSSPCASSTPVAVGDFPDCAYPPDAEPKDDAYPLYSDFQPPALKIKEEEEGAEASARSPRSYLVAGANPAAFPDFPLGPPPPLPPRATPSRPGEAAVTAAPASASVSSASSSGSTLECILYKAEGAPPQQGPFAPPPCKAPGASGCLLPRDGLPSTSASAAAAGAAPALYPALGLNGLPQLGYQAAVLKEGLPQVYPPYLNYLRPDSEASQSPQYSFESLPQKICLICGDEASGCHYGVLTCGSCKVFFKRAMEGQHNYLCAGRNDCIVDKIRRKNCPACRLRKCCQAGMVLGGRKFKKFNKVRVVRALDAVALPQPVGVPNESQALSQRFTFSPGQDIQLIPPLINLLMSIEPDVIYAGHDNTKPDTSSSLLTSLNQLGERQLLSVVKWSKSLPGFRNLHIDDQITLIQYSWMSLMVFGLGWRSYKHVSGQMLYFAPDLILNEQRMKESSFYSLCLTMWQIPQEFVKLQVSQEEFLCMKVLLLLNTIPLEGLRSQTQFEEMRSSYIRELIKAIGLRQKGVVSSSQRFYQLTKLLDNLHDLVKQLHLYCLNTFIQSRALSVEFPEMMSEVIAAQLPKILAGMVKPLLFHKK
# Description: 2. PRE-luciferase Assay in CV-1 to Cells
# The object of this assay is to determine a compound's progestational or antiprogestational potency based on its effect on PRE-luciferase reporter activity in CV-1 cells co-transfected with human PR and PRE-luciferase plasmids. The materials methods used in the assay are as follows.
# The growth medium was as follows: DMEM (BioWhittaker) containing 10% (v/v) fetal bovine serum (heat inactivated), 0.1 mM MEM non-essential amino acids, 100U/ml penicillin, […] streptomycin, and 2 mM GlutaMax (GIBCO, BRL). The experimental medium was as follows: DMEM (BioWhittaker), phenol red-free, containing 10% (v/v) charcoal-stripped fetal bovine serum (heat-inactivated), 0.1 mM MEM non-essential amino acids, 100U/ml penicillin […] streptomycin, and 2 mM GlutaMax (GIBCO, BRL).
# b. Cell Culture, Transfection, Treatment, and Luciferase Assay
# Stock CV-1 cells are maintained in growth medium Co-transfection is done using 1.2×10^7 cells, 5 mg pLEM plasmid with hPR-B inserted at Sph1 and BamH1 sites, 10 mg pGL3 plasmid with two PREs upstream of the luciferase sequence, and 50 mg sonicated calf thymus DNA as carrier DNA in […]. […] Luciferase activity is measured using luciferase reagents from Promega.
# Each treatment consists of at least 4 replicates. […] EC50 or IC50 values are calculated from the retransformed values.
smiles,measurement,setting,value
"CC1(C)OC(=O)Nc2ccc(-c3coc(C#N)c3)cc21 [Compound 7, 4-(44-Dimethyl-2-oxo-1,4-dihydro-2H-benzo[d][1,3]oxazin-6-yl)-furan-2-carbonitrile]","Decidualization, percentage inhibition at the dose specified",[1],75% @ 3
same,IC50,human PR,30 nM
